Test results taken from ChEMBL document CHEMBL2321675, “Irreversible inhibitors of cysteine proteases” (ACS Med Chem Lett, 2013).

What was measured:
Caspase-10 = molecular target: T1, Caspase-10 (Homo sapiens, UniProt Q92851); test: Inhibition of caspase-10 (unknown origin)
T1 sequence (Q92851 whole entry): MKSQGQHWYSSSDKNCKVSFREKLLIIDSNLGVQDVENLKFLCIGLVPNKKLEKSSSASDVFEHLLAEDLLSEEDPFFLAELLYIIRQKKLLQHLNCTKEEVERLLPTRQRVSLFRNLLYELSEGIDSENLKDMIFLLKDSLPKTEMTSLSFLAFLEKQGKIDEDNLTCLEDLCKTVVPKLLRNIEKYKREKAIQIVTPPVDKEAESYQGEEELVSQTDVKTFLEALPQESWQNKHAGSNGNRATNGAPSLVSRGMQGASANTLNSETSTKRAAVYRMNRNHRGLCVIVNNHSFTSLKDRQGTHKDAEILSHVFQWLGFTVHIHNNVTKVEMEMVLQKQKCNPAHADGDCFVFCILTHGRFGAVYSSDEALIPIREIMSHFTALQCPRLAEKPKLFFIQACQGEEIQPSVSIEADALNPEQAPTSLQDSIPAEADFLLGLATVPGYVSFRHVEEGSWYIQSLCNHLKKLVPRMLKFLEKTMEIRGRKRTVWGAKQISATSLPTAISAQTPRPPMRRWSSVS

Caspase-9 = molecular target: T2, Caspase-9 (Homo sapiens, UniProt P55211); test: Inhibition of caspase-9 (unknown origin)
T2 sequence (P55211 whole entry): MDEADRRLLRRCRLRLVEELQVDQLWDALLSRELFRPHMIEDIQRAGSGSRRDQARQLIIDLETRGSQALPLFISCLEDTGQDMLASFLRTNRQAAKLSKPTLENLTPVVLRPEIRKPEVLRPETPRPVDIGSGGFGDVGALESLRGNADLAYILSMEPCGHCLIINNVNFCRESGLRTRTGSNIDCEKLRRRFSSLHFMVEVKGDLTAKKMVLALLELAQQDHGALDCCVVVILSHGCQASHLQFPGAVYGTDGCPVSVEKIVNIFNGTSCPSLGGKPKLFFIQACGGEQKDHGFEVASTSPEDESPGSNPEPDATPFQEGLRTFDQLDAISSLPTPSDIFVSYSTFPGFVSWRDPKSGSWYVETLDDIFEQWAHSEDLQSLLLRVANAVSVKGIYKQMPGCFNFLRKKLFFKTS

Caspase-8 = Caspase-8 (Homo sapiens, UniProt Q14790); test: Inhibition of caspase-8 (unknown origin)
Sequence of Caspase-8 (Q14790 217-374 limits assumed): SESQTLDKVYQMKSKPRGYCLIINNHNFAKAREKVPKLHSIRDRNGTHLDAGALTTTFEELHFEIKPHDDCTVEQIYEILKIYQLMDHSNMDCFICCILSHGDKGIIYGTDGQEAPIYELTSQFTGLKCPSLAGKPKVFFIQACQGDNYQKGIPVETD
Sequence of Caspase-8 (Q14790 385-479 limits assumed): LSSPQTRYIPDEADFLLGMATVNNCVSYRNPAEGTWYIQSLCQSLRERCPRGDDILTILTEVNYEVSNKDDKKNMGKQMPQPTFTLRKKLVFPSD

Caspase-6 = molecular target: T3, Caspase-6 (Homo sapiens, UniProt P55212); test: Inhibition of caspase-6 (unknown origin)
T3 sequence (P55212 whole entry): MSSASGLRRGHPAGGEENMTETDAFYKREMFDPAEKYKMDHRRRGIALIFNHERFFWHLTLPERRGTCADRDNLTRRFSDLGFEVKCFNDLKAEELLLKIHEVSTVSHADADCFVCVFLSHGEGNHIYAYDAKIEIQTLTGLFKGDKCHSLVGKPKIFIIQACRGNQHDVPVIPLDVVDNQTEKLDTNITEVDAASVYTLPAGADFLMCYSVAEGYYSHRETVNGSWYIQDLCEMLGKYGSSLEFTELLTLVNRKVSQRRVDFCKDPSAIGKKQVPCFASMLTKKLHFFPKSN

Caspase-5 = molecular target: T4, Caspase-5 (Homo sapiens, UniProt P51878); test: Inhibition of caspase-5 (unknown origin)
T4 sequence (P51878 whole entry): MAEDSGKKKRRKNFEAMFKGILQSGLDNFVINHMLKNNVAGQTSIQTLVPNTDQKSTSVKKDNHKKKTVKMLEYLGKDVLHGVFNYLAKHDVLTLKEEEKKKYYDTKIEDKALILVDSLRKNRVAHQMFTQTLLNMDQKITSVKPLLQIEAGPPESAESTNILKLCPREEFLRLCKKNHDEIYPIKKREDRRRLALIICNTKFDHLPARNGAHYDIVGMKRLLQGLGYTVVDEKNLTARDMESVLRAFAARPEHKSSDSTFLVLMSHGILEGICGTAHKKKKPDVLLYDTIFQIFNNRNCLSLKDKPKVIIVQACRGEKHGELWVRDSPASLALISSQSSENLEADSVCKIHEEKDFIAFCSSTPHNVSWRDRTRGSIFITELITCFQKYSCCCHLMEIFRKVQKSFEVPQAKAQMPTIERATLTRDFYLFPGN

Caspase-7 = molecular target: T5, Caspase-7 (Homo sapiens, UniProt P55210); test: Inhibition of caspase-7 (unknown origin)
T5 sequence (P55210 whole entry): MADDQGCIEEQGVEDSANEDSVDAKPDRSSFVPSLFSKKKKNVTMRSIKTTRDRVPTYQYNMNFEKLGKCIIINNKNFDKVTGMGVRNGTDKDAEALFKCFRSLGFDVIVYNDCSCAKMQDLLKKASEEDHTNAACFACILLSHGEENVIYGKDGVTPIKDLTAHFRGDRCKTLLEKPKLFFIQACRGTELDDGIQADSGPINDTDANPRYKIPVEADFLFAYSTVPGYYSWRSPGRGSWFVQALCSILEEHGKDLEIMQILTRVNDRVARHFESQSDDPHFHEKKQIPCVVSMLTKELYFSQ

Caspase-4 = molecular target: T6, Caspase-4 (Homo sapiens, UniProt P49662); test: Inhibition of caspase-4 (unknown origin)
T6 sequence (P49662 whole entry): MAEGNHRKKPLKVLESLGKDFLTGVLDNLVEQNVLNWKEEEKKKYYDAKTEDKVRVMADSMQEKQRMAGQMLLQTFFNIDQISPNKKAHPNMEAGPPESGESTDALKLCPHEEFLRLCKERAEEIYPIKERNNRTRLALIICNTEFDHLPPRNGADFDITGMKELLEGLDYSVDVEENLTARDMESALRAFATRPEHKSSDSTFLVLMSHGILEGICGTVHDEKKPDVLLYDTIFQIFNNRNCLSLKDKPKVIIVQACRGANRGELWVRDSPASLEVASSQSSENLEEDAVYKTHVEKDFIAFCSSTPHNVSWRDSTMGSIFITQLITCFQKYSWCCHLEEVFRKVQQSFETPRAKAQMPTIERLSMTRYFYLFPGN

Caspase-3 = molecular target: T7, Caspase-3 (Homo sapiens, UniProt P42574); test: Inhibition of caspase-3 (unknown origin)
T7 sequence (P42574 whole entry): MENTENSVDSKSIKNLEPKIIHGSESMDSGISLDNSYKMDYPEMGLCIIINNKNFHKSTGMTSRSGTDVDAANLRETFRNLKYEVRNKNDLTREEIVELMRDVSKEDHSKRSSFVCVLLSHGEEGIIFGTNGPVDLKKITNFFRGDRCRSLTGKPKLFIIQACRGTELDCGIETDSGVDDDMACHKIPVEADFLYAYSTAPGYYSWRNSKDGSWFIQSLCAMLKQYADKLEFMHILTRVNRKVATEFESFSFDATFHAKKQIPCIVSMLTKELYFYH

Caspase-2 = molecular target: T8, Caspase-2 (Homo sapiens, UniProt P42575); test: Inhibition of caspase-2 (unknown origin)
T8 sequence (P42575 whole entry): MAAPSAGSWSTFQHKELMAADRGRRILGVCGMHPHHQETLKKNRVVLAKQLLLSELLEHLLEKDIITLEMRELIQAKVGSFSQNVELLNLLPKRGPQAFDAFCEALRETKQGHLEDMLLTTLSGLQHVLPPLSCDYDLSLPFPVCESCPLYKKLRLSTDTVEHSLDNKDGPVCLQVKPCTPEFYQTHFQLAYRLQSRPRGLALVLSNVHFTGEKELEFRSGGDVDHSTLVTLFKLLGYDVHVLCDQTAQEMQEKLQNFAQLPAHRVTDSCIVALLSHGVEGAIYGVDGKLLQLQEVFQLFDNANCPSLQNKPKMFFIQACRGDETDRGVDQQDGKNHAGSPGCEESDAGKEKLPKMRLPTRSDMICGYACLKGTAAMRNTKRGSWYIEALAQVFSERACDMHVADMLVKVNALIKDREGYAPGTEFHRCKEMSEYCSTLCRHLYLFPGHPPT

Caspase-1 = molecular target: T9, Caspase-1 (Homo sapiens, UniProt P29466); test: Inhibition of caspase-1 (unknown origin)
T9 sequence (P29466 whole entry): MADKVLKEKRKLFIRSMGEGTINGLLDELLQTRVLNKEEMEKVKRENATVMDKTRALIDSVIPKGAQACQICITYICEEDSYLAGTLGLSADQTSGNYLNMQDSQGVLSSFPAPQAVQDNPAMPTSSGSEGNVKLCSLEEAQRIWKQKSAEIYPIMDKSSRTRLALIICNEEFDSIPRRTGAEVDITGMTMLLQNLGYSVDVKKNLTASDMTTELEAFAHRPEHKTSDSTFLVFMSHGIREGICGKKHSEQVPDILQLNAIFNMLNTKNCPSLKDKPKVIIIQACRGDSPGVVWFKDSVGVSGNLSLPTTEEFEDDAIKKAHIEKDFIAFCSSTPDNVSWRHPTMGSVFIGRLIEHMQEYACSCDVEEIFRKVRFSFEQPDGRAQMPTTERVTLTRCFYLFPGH

Compound	IC50 (Caspase-10) [µM]	IC50 (Caspase-9) [µM]	IC50 (Caspase-8) [µM]	IC50 (Caspase-6) [µM]	IC50 (Caspase-5) [µM]	IC50 (Caspase-7) [µM]	IC50 (Caspase-4) [µM]	IC50 (Caspase-3) [µM]	IC50 (Caspase-2) [µM]	IC50 (Caspase-1) [µM]
CC(C)(C)[C@@H](NC(=O)c1ccc(N)c(Cl)c1)C(=O)N1CCC[C@H]1C(=O)N[C@H](/C=C/S(C)(=O)=O)CC(=O)O	2.67	2.3	12.9	> 100	0.56	24.5	0.09	> 100	> 100	0.02
CC(C)(C)[C@H](NC(=O)[C@H](CC(=O)O)NC(=O)OCc1ccccc1)C(=O)N1CC[C@H]1C(=O)N[C@H](/C=C/S(C)(=O)=O)CC(=O)O	0.42	1.1	4.1	> 100	35.2	0.5	5.6	0.28	13.1	13.2
CC[C@H](C)[C@H](NC(=O)[C@H](CCC(N)=O)NC(=O)[C@@H](NC(=O)OCc1ccccc1)C(C)C)C(=O)N[C@H](/C=C/S(C)(=O)=O)CC(=O)O	0.13	0.8	0.6	0.6	19.5	> 100	0.37	6.9	> 100	2.7
CC[C@H](C)[C@H](NC(=O)[C@H](CCC(N)=O)NC(=O)[C@H](Cc1c[nH]c2ccccc12)NC(=O)OCc1ccccc1)C(=O)N[C@H](/C=C/S(C)(=O)=O)CC(=O)O	3.3	1.74	5.93	100	0.75	23.7	0.18	6.5	> 100	0.026
CCOC(=O)/C=C/[C@H](CC(=O)O)NC(=O)[C@@H](NC(=O)[C@@H](NC(=O)[C@H](CC(=O)O)NC(=O)OCc1ccccc1)c1ccccc1)C(C)C				> 100	> 100				> 100	
